Source: patent EP0369079A1, “Pharmaceutical compositions with anti-cancer activity and method for the treatment of cancer” (priority 1988, dated 1990)
Counter-ions that a name gives are not always drawn. Like-named read-outs stand apart in the source and are kept apart here.

How the values were obtained:
[1] = tested on: NHIK 3025 cells; test: Cell survival (colony formation) after drug treatment; assay type: cell-based, Human; conditions: for Surviving fraction: 1440 min
Procedure: The cells are grown as monolayers in tissue culture flasks. […] The cells were kept in continuous exponential growth by frequent reculturing, i.e. every second and third day.
For measurment of cell survival, appropriate numbers of cells were seeded in plastic Petri dishes (⌀ = 5 cm). The number of cells seeded into each dish was adjusted such that the number of surviving cells would be approximately 150 per dish. While exponentially growing (asynchronous) cells were trypsinized before seeding, synchronized cells were seeded immediately after selection. […] After the desired time of treatment, the drug-containing medium was removed, and fresh medium was added. The dishes were rinsed once with the same medium as was to be added on addition or removal of drug. After 10 to 12 days at 37°C in a CO₂ incubator, the cells were fixed in ethanol and stained with methylene blue before the colonies were counted.
The cytotoxic effect of BASS and of ascorbic acid (Asc) used either alone or in simultaneous combination was measured on asynchronous, exponentially growing NHIK 3025 cells.

[2] = tested on: NHIK 3025 cells; test: Rate of protein synthesis ([3H]valine incorporation related to [14C] protein label); assay type: cell-based, Human; conditions: Table 6, control 4.5
Procedure: Human cells of the established line NHIK 3025, originating from a cervical carcinoma in situ (Nordbye, K., and Oftebro, R. Exp. Cell Res., 58:458, l969), Oftebro, R., and Nordbye, K., Exp. Cell Res., 58:459-460, 1969) were cultivated in Medium E2a (Puck, T.T. et al., J. Exp. Med., 106: 145-165, 1957) supplemented with 20% human and 10% horse serum (Grand Island Biological Co.). The cells are grown as monolayers in tissue culture flasks. […] The cells were kept in continuous exponential growth by frequent reculturing, i.e. every second and third day.
The rate of protein synthesis was calculated as described in Rønning, ø. W. et al., J. Cell Physiol., 107: 47-57, 1981. Briefly, cellular protein was labelled to saturation during a 2-day preincubation with (¹⁴C)valine of constant specific radioactivity (0.5 Ci/mol) prior to the experiment. This was achieved by using a high concentration of valine so that the dilution of (¹⁴C) valine by intracellular valine and by proteolytically generated valine will be negligible (Rønning, ø. W., et al. Exp. Cell Res. 123:63-72, 1979), thus keeping the specific radioactivity at a constant level. The rate of protein synthesis was calculated from the incorporation of (³H) valine of constant specific activity. The incorporation measurements were related to the total of (¹⁴C) radioacitivty in protein at the beginning of the respective measurement periods and expressed as the percentage per hour (Rønning, ø. W. et al, J. Cell, Physiol. 107:47-57, 1981).
From earlier studies, it is known that determination of protein synthesis inhibition is a useful measure of anti-cancer activity. In the present study we have tested the protein synthesis inhibition as induced by both BASS and Asc alone, and by the two active agents in simultaneous combination. The experiment also included samples treated similarly, but where BASS-d₁ was used instead of BASS.

[3] = L-ascorbic acid in combination with other aromatic aldehydes or derivatives (synergy check); assay type: cell-based; conditions: used in combination with L-ascorbic acid
[4] = Homo sapiens, NHIK3025, 24 h, Table 4, 24 hours, 1.0 mM BASS or BASS-d1 alone (0 mM Asc), read-out: Surviving fraction
[5] = 1.0 mM BASS or BASS-d1 alone (0 mM Asc), per cent of the total cellular protein per hour
[6] = 3.2 mM BASS or BASS-d1 alone (0 mM Asc)

O=C1O[C@H]([C@@H]2COC(c3ccccc3)O2)C(O)=C1O (stereo partly drawn) [BASS, sodium salt of 5,6-O-benzylidene-L-ascorbic acid]
viability at 1600 µM ([1]; Homo sapiens, NHIK3025, 4 h, Table 3, 4 hours, 1.6 mM BASS alone, read-out: Surviving fraction): 80 ± 5% | viability at 3200 µM ([1]; Homo sapiens, NHIK3025, 4 h, Table 3, 4 hours, 3.2 mM BASS alone, read-out: Surviving fraction): 36 ± 3% | viability at 1000 µM ([1]; Homo sapiens, NHIK3025, 24 h, Table 1, 24 hours, 1.0 mM BASS alone (0 mM Asc), read-out: Surviving fraction): 76% | viability at 1600 µM ([1]; Homo sapiens, NHIK3025, 24 h, Table 1, 24 hours, 1.6 mM BASS alone (0 mM Asc), read-out: Surviving fraction): 52 ± 2% | viability at 3200 µM ([1]; Homo sapiens, NHIK3025, 24 h, Table 1, 24 hours, 3.2 mM BASS alone (0 mM Asc), read-out: Surviving fraction): 1.1 ± 0.1% | viability at 1000 µM [1, 4]: 62 ± 5% | viability at 1600 µM ([1]; Homo sapiens, NHIK3025, 24 h, read-out: Surviving fraction): 24 ± 3% | viability at 500 µM ([1]; Homo sapiens, NHIK3025, Table 2 (further experiment, similar to Table 1), 0.5 mM BASS alone, read-out: Surviving fraction): 91 ± 7% | viability at 1000 µM ([1]; Homo sapiens, NHIK3025, Table 2 (further experiment, similar to Table 1), 1.0 mM BASS alone, read-out: Surviving fraction): 63 ± 8% | viability at 1600 µM ([1]; Homo sapiens, NHIK3025, Table 2 (further experiment, similar to Table 1), 1.6 mM BASS alone, read-out: Surviving fraction): 44 ± 3% | viability at 3200 µM ([1]; Homo sapiens, NHIK3025, Table 2 (further experiment, similar to Table 1), 3.2 mM BASS alone, read-out: Surviving fraction): 3.9 ± 0.4% | Surviving fraction ([1]; Table 1, 24 hours, 1.0 mM BASS alone (0 mM Asc), 1000 µM): 0.76±0.02 | rate of protein synthesis [2, 5]: 3.06±0.02 %/h | rate of protein synthesis [2, 6]: 1.71±0.05 %/h

OC1O[C@@H]2COC(c3ccccc3)O[C@H]2[C@H](O)[C@H]1O (stereo partly drawn) [4,6-O-benzylidene glucose]
synergistic effects [3]: without observing any synergistic effects

[2H]C1(c2ccccc2)OC[C@@H]([C@H]2OC(=O)C(O)=C2O)O1 (stereo partly drawn) [BASS-d₁, sodium salt of 5,6-O-benzylidene-L-ascorbic acid deuterated at the 1-position of the aldehyde group of the benzylidene moiety]
viability at 1000 µM [1, 4]: 55 ± 5% | rate of protein synthesis [2, 5]: 3.03±0.16 %/h | rate of protein synthesis [2, 6]: 2.00±0.03 %/h

O=C1O[C@H]([C@@H](O)CO)C(O)=C1O [Asc, L-ascorbic acid, reference compound]
viability at 1600 µM ([1]; Homo sapiens, NHIK3025, 4 h, Table 3, 4 hours, 1.6 mM Asc alone, read-out: Surviving fraction): 91 ± 1% | viability at 3200 µM ([1]; Homo sapiens, NHIK3025, 4 h, Table 3, 4 hours, 3.2 mM Asc alone, read-out: Surviving fraction): 27 ± 3% | viability at 800 µM ([1]; Homo sapiens, NHIK3025, 24 h, Table 1, 24 hours, 0.8 mM Asc alone (0 mM BASS), read-out: Surviving fraction): 91 ± 9% | viability at 1200 µM ([1]; Homo sapiens, NHIK3025, 24 h, Table 1, 24 hours, 1.2 mM Asc alone (0 mM BASS), read-out: Surviving fraction): 80% | viability at 1600 µM ([1]; Homo sapiens, NHIK3025, 24 h, Table 1, 24 hours, 1.6 mM Asc alone (0 mM BASS), read-out: Surviving fraction): 61 ± 4% | viability at 2400 µM ([1]; Homo sapiens, NHIK3025, 24 h, Table 1, 24 hours, 2.4 mM Asc alone (0 mM BASS), read-out: Surviving fraction): 40 ± 3% | viability at 3200 µM ([1]; Homo sapiens, NHIK3025, 24 h, Table 1, 24 hours, 3.2 mM Asc alone (0 mM BASS), read-out: Surviving fraction): 11 ± 0.8% | viability at 800 µM ([1]; Homo sapiens, NHIK3025, Table 2 (further experiment, similar to Table 1), 0.8 mM Asc alone, read-out: Surviving fraction): 95 ± 5% | viability at 1200 µM ([1]; Homo sapiens, NHIK3025, Table 2 (further experiment, similar to Table 1), 1.2 mM Asc alone, read-out: Surviving fraction): 69 ± 2% | viability at 1600 µM ([1]; Homo sapiens, NHIK3025, Table 2 (further experiment, similar to Table 1), 1.6 mM Asc alone, read-out: Surviving fraction): 54 ± 2% | viability at 2400 µM ([1]; Homo sapiens, NHIK3025, Table 2 (further experiment, similar to Table 1), 2.4 mM Asc alone, read-out: Surviving fraction): 29 ± 1% | viability at 3200 µM ([1]; Homo sapiens, NHIK3025, Table 2 (further experiment, similar to Table 1), 3.2 mM Asc alone, read-out: Surviving fraction): 8.7 ± 1% | Surviving fraction ([1]; Table 1, 24 hours, 1.2 mM Asc alone (0 mM BASS), 1200 µM): 0.80±0.09 | rate of protein synthesis ([2]; 1.0 mM Asc alone): 2.96±0.04 %/h | rate of protein synthesis ([2]; 3.2 mM Asc alone): 1.5±0.2 %/h
